# Results as given in patent US9023821B2, “Use of MicroRNA for treating diseases associated with a dysfunction of the cilia in multiciliated epithelial cells” (Centre National de la Recherche Scientifique, priority 2009, dated 2015).
# {Chol} = cholesterol
# How the values were obtained:
# HAEC cells = assay: Ciliogenesis of HAEC cells treated with antagomir during regeneration (tubulin-β4 positive cells); assay type: cell-based, human; details: number of ciliated HAEC cells at stage ALI-D21, n=6, P<0.001
# Method: (a,b) the HEAC cells are treated several times with anti-miR-449 antagomirs or a control antagomir (20 nM) during their regeneration (generally 21 days). The percentage of ciliated cells was defined as the ratio of the number of cells positive to +tubulin-β4 relative to the number of nuclei (20 fields/filter and 3 filters/donor). […] The histogram indicates the percentage of ciliated cells per field for each experimental condition (n=6, ***, P<0.001, Student test).
# Six independent cultures of HAEC cells were transfected with an oligonucleotide directed against the miR-449s and conjugated with a cholesterol molecule; ciliogenesis was evaluated during the regeneration time.
# These tests use an antisense oligonucleotide of miR-449a (antagomir) bound at 3′ by a 2′-O-methyl bond to a molecule of cholesterol and with the sequence: 5′-ascscsagcuaacaauacacugcscsa-Chol-3′ (SEQ. ID. No. 207) (the phosphorothioate bonds are indicated by the subscript J (obtained according to Eurogentec (Seraing, Belgium).
# The antagomir (100 μM) was preincubated in fetal calf serum (FCS) for 30 min RT. Then the antagomir-FCS mixture in a differentiation medium (20 μM of antagomir) is added on the apical face of the primary HAEC cells. After 2 h at 37° C., the mixture is withdrawn to restore the air-liquid interface. […]
# miR-449 = assay: Expression of miRNAs in HAEC cells treated with antagomir; assay type: cell-based, human
# [1] = tested on: human airway epithelial cells (HAECs); assay: Agilent miRNA chips, miRNA expression at four stages of differentiation of HAECs; details: for Modulation (ratio of the level of intensity of expression in log2 in two stages of differentiation) measured with the Agilent chips, D7 − D0 / Modulation (ratio of the level of intensity of expression in log2 in two stages of differentiation) measured with the Agilent chips, FC − D7 / Modulation (ratio of the level of intensity of expression in log2 in two stages of differentiation) measured with the Agilent chips, WD − D0 / Modulation (ratio of the level of intensity of expression in log2 in two stages of differentiation) measured with the Agilent chips, WD − FC / Level of intensity of expression in log2 measured with the Agilent chips, D0 / Level of intensity of expression in log2 measured with the Agilent chips, D7 / Level of intensity of expression in log2 measured with the Agilent chips, FC / Level of intensity of expression in log2 measured with the Agilent chips, WD: Table VI; for Modulation (ratio of the level of intensity of expression in log2 at two stages of differentiation), FC − D7 / Modulation (ratio of the level of intensity of expression in log2 at two stages of differentiation), WD − FC: Agilent miRNA chips, Table V; for Level of intensity of expression in log2 measured with the Agilent chips, D0: stage D0; for Level of intensity of expression in log2 measured with the Agilent chips, D7: stage D7; for Level of intensity of expression in log2 measured with the Agilent chips, FC: stage FC; for Level of intensity of expression in log2 measured with the Agilent chips, WD: stage WD
# In short: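 Expression was profiled on Human miRNA Microarray v2 chips covering 866 human and 89 human viral miRNAs from miRBase v12.0. Labelled HAEC RNA came from the same patients used for sequencing and was hybridized per kit protocol. Chip and sequencing results were compared.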
# [2] = tested on: human airway epithelial cells (HAECs); assay: High-throughput sequencing (HTS) of miRNAs at four stages of differentiation of HAECs; details: for Modulation (ratio of the level of intensity of expression in log2 in two stages of differentiation) measured by high-throughput sequencing, D7 − D0 / Modulation (ratio of the level of intensity of expression in log2 in two stages of differentiation) measured by high-throughput sequencing, FC − D7 / Modulation (ratio of the level of intensity of expression in log2 in two stages of differentiation) measured by high-throughput sequencing, WD − D0 / Modulation (ratio of the level of intensity of expression in log2 in two stages of differentiation) measured by high-throughput sequencing, WD − FC / Level of intensity of expression in log2 measured by high-throughput sequencing, D0 / Level of intensity of expression in log2 measured by high-throughput sequencing, D7 / Level of intensity of expression in log2 measured by high-throughput sequencing, FC / Level of intensity of expression in log2 measured by high-throughput sequencing, WD: Table VI; for Modulation (ratio of the level of intensity of expression in log2 in two stages of differentiation), D7 − D0 / Modulation (ratio of the level of intensity of expression in log2 in two stages of differentiation), FC − D7 / Modulation (ratio of the level of intensity of expression in log2 in two stages of differentiation), WD − FC / Abundance (%), D0 / Abundance (%), D7 / Abundance (%), FC / Abundance (%), WD: HTS; for Abundance (%), D0: ALI-D0; for Abundance (%), D7: ALI-D7; for Abundance (%), FC: ALI-FC; for Abundance (%), WD: ALI-WD; for Level of intensity of expression in log2 At the differentiated stage (WD) measured in HTS: healthy human airway epithelial tissue; for Level of intensity of expression in log2 measured by high-throughput sequencing, D0: stage D0; for Level of intensity of expression in log2 measured by high-throughput sequencing, D7: stage D7; for Level of intensity of expression in log2 measured by high-throughput sequencing, FC: stage FC; for Level of intensity of expression in log2 At the differentiated stage (WD) measured in HTS / Level of intensity of expression in log2 measured by high-throughput sequencing, WD: stage WD
# In short: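 ALI cultures sampled at day 0, day 7, first-cilia stage (~14 d) and full differentiation (~21 d). Trizol lysis, column purification retaining small RNAs. Adaptor ligation, RT at 42° C for 30 min, PCR, gel selection of ~105-150 base products.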
# [3] = tested on: basal cells and pyramidal cells of the airway epithelium; assay: miRNA expression in sorted basal cells versus pyramidal cells (ciliated + secretory), HTS and Agilent chips; design: species or system human; details: for Modulation of expression of the miRNAs in pyramidal cells (323(−)) relative to basal cells 323(+): HTS and Agilent chips; for Intensity of the level of expression in log2 in pyramidal cells (323(−)): pyramidal cells (ciliated + secretory)
# In short: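 FACS on CD151 and tissue factor: double-positive = basal, double-negative = ciliated + mucus cells; DAPI, doublets, aggregates excluded; sort at 5000 events/s. Purity checked by cytometry/immunocytochemistry. miRNA by Agilent array or HTS on total RNA. Source: nasal polyps/conchae, 3 donors.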
Substance,"Modulation (ratio of the level of intensity of expression in log2 in two stages of differentiation) measured with the Agilent chips, D7 − D0 [1] [log2]","Modulation (ratio of the level of intensity of expression in log2 in two stages of differentiation) measured with the Agilent chips, FC − D7 [1] [log2]","Modulation (ratio of the level of intensity of expression in log2 in two stages of differentiation) measured with the Agilent chips, WD − D0 [1] [log2]","Modulation (ratio of the level of intensity of expression in log2 in two stages of differentiation) measured with the Agilent chips, WD − FC [1] [log2]","Level of intensity of expression in log2 measured with the Agilent chips, D0 [1] [log2]","Level of intensity of expression in log2 measured with the Agilent chips, D7 [1] [log2]","Level of intensity of expression in log2 measured with the Agilent chips, FC [1] [log2]","Level of intensity of expression in log2 measured with the Agilent chips, WD [1] [log2]","Modulation (ratio of the level of intensity of expression in log2 in two stages of differentiation) measured by high-throughput sequencing, D7 − D0 [2] [log2]","Modulation (ratio of the level of intensity of expression in log2 in two stages of differentiation) measured by high-throughput sequencing, FC − D7 [2] [log2]","Modulation (ratio of the level of intensity of expression in log2 in two stages of differentiation) measured by high-throughput sequencing, WD − D0 [2] [log2]","Modulation (ratio of the level of intensity of expression in log2 in two stages of differentiation) measured by high-throughput sequencing, WD − FC [2] [log2]",Level of intensity of expression in log2 At the differentiated stage (WD) measured in HTS [2] [log2],"Level of intensity of expression in log2 measured by high-throughput sequencing, D0 [2] [log2]","Level of intensity of expression in log2 measured by high-throughput sequencing, D7 [2] [log2]","Level of intensity of expression in log2 measured by high-throughput sequencing, FC [2] [log2]","Level of intensity of expression in log2 measured by high-throughput sequencing, WD [2] [log2]",Modulation of expression of the miRNAs in pyramidal cells (323(−)) relative to basal cells 323(+) [3],Intensity of the level of expression in log2 in basal cells (323(+)) [3] [log2],Intensity of the level of expression in log2 in pyramidal cells (323(−)) [3] [log2],also measured
"anti-miR-449 antagomir: antisense oligonucleotide of miR-449a bound at 3′ to cholesterol, 5′-ascscsagcuaacaauacacugcscsa-Chol-3′ (SEQ. ID. No. 207) (antisense ACCAGCUAACAAUACACUGCCA; linkages s3 o16 s2 (s phosphorothioate, o phosphodiester), 3' {Chol}, sugars by position and methylation of C not given here; further chemistry not fully specified; listed as Homo sapiens)",–,–,–,–,–,–,–,–,–,–,–,–,–,–,–,–,–,–,–,–,mean value of inhibition of ciliogenesis (HAEC cells): 2.3±0.3; expression of miR449a (miR-449; n=6): suppresses; expression of miR-21 (miR-449; n=6): no effect; expression of miR-449b (miR-449; n=6): suppresses; expression of miR-449 (miR-449; stage ALI-D21): reduction of the same order
"hsa-miR-449a: human miRNA, SEQ ID No. 46 (UGGCAGUGUAUUGUUAGCUGGU; expressed or natural sequence; listed as Homo sapiens)",6.53,5.70,12.08,−0.15,1.47,8.00,13.70,13.54,5.21,5.21,10.63,0.21,12.24,4.48,9.69,14.90,15.11,6.07,2.81,8.88,"Modulation (ratio of the level of intensity of expression in log2 at two stages of differentiation), FC − D7 [1]: 5.70 log2; Modulation (ratio of the level of intensity of expression in log2 at two stages of differentiation), WD − FC [1]: −0.15 log2; Modulation (ratio of the level of intensity of expression in log2 in two stages of differentiation), D7 − D0 [2]: 5.21 log2; Modulation (ratio of the level of intensity of expression in log2 in two stages of differentiation), FC − D7 [2]: 5.21 log2; Modulation (ratio of the level of intensity of expression in log2 in two stages of differentiation), WD − FC [2]: 0.21 log2; Abundance (%), D0 [2]: 0.00%; Abundance (%), D7 [2]: 0.18%; Abundance (%), FC [2]: 6.49%; Abundance (%), WD [2]: 5.70%"
"hsa-miR-574-3p: human miRNA, SEQ ID No. 48 (CACGCUCAUGCACACACCCACA; expressed or natural sequence; listed as Homo sapiens)",1.69,−0.46,1.04,−0.18,4.73,6.42,5.96,5.77,0.48,0.12,0.92,0.32,13.42,13.64,14.12,14.24,14.56,0.91,3.53,4.44,"Modulation (ratio of the level of intensity of expression in log2 in two stages of differentiation), D7 − D0 [2]: 0.48 log2; Modulation (ratio of the level of intensity of expression in log2 in two stages of differentiation), FC − D7 [2]: 0.12 log2; Modulation (ratio of the level of intensity of expression in log2 in two stages of differentiation), WD − FC [2]: 0.32 log2; Abundance (%), D0 [2]: 2.80%; Abundance (%), D7 [2]: 3.92%; Abundance (%), FC [2]: 4.12%; Abundance (%), WD [2]: 3.90%"
"hsa-miR-939: human miRNA, SEQ ID No. 50 (UGGGGAGCUGAGGCUCUGGGGGUG; expressed or natural sequence; listed as Homo sapiens)",1.40,−0.63,0.70,−0.07,6.64,8.04,7.41,7.34,0.13,−0.13,0.00,0.00,5.43,0.01,0.15,0.01,0.01,1.28,4.81,6.08,"Modulation (ratio of the level of intensity of expression in log2 at two stages of differentiation), FC − D7 [1]: −0.63 log2; Modulation (ratio of the level of intensity of expression in log2 at two stages of differentiation), WD − FC [1]: −0.07 log2"
